According to patent US11566057B2, “Long-acting co-agonists of the glucagon and GLP-1 receptors” (Merck Sharp & Dohme Corp., priority 2017, dated 2023):
Like-named read-outs stand apart in the source and are kept apart here. Numbered stars: 1 amine (or outer) side, 2 acyl side, 3 side chain; on linkers, the order of the positions; unused ones are H or OH. Square brackets hold non-standard residues; d marks the D form. Side chains are listed from the residue outwards. Peptide text beside a SMILES is read from it. * marks the point of attachment. Phe(4-CH2NH2) = NCc1ccc(C[C@H](N)C(=O)O)cc1; C18 diacid = O=C(O)CCCCCCCCCCCCCCCCC(=O)*; γGlu = O=C(O)[C@H](CCC(=O)[*:2])N[*:1]; Met(O2) = CS(=O)(=O)CC[C@H](N)C(=O)O; αMeD = C[C@](N)(CC(=O)O)C(=O)O; AEEA = NCCOCCOCC(=O)O; Aib = CC(C)(N)C(=O)O

Columns and labels:
human GCGR = biological target: T1, human GCGR (Homo sapiens, UniProt P47871); experiment: cAMP activity assay at the Glucagon receptor (GCGR); assay type: cell-based; details: for hGCGR/hGLP1R (hTone): ratio of GCGR EC50 to GLP1R EC50
T1 construct: expressed in transfected cells; growth medium holds Blasticidin and Hygromycin
Procedure, shortened: (§1)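 Peptides serially diluted from DMSO (10 points) and added to frozen-stock cells bearing human GLP1R (10,000 cells/well) or GCGR (30,000 cells/well), 1 h at RT, dark. EC50 by four-parameter logistic fit of HitHunter cAMPXS luminescence, read following overnight RT incubation.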

human GLP1R = biological target: T2, human GLP1R (Homo sapiens, UniProt P43220); experiment: cAMP activity assay at the GLP-1 receptor (GLP1R); assay type: cell-based
T2 construct: expressed in transfected cells; growth medium holds Blasticidin and Hygromycin
Procedure, shortened: as §1

[1] = summary statement: EC50 at each of the glucagon and GLP-1 receptors, read-out: EC50 at the glucagon receptor
[2] = summary statement: EC50 at each of the glucagon and GLP-1 receptors, read-out: EC50 at the GLP-1 receptor
[3] = cells expressing human GCGR, cAMP production, buffer with or without 20% human serum (not stated which), read-out: GCGR EC50 human
[4] = cells expressing human GLP1R, cAMP production, buffer with or without 20% human serum (not stated which), read-out: GLP1R EC50 human

T1 sequence (P47871 26-477): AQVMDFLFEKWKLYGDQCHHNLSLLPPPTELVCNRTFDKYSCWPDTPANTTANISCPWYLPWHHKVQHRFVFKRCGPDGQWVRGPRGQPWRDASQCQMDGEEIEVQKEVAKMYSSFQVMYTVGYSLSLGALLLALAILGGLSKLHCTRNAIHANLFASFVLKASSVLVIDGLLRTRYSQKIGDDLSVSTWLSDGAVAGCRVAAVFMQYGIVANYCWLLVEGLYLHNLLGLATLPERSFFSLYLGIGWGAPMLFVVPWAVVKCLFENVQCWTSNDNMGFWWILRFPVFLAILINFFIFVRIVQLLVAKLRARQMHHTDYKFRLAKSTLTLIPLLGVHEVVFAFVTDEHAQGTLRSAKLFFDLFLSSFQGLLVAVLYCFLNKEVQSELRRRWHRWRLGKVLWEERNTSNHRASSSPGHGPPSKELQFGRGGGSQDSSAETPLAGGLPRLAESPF
T2 sequence (P43220 24-463): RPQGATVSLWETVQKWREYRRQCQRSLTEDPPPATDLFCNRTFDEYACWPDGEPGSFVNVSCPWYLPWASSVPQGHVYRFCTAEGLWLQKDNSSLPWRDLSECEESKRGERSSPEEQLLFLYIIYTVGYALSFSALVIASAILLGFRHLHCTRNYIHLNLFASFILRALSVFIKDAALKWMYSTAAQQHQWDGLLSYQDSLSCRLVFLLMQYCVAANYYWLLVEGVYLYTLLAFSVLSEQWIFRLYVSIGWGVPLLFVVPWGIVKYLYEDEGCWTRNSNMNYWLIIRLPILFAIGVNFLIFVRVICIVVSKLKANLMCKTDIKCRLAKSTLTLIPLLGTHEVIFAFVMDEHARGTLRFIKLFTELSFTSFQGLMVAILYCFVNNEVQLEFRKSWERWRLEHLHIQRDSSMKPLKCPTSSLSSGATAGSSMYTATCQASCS

Q: What does the source list for `CC(C)C[C@H](NC(=O)[C@H](Cc1ccc(O)cc1)NC(=O)[C@H](CCCCN)NC(=O)[C@H](CO)NC(=O)[C@H](Cc1ccc(O)cc1)NC(=O)[C@H](CC(=O)O)NC(=O)[C@H](CO)NC(=O)[C@@H](NC(=O)[C@H](Cc1ccccc1)NC(=O)[C@@H](NC(=O)CNC(=O)[C@H](CCC(N)=O)NC(=O)C(C)(C)NC(=O)[C@@H](N)Cc1c[nH]cn1)[C@@H](C)O)[C@@H](C)O)C(=O)N[C@@H](CC(=O)O)C(=O)N[C@@H](C)C(=O)N[C@@H](CCCNC(=N)N)C(=O)N[C@@H](C)C(=O)N[C@@H](C)C(=O)N[C@@H](CCC(N)=O)C(=O)N[C@@H](CC(=O)O)C(=O)N[C@@H](Cc1ccccc1)C(=O)N[C@H](C(=O)N[C@@H](Cc1ccc(CNC(=O)COCCOCCNC(=O)CC[C@H](NC(=O)CCCCCCCCCCCCCCCCC(=O)O)C(=O)O)cc1)C(=O)N[C@@H](Cc1c[nH]c2ccccc12)C(=O)N[C@@H](CC(C)C)C(=O)N[C@@H](CC(C)C)C(=O)N[C@@H](CC(=O)O)C(=O)N[C@H](C(N)=O)[C@@H](C)O)C(C)C` [TP638] (H-H[Aib]QGTFTSDYSKYLDARAAQDFV[Phe(4-CH2NH2)]([AEEA-γGlu-C18 diacid])WLLDT-NH2)?
A: hGCGR/hGLP1R (hTone) (human GCGR): 3.3; EC50 (human GCGR; [1]): < 5 nM; EC50 (human GLP1R; [2]): < 5 nM

Q: With `CC(C)C[C@H](NC(=O)[C@H](Cc1ccc(O)cc1)NC(=O)[C@H](CCCCN)NC(=O)[C@H](CO)NC(=O)[C@H](Cc1ccc(O)cc1)NC(=O)[C@H](CC(=O)O)NC(=O)[C@H](CO)NC(=O)[C@@H](NC(=O)[C@H](Cc1ccccc1)NC(=O)[C@@H](NC(=O)CNC(=O)[C@H](CCC(N)=O)NC(=O)C(C)(C)NC(=O)[C@@H](N)Cc1c[nH]cn1)[C@@H](C)O)[C@@H](C)O)C(=O)N[C@@H](CC(=O)O)C(=O)N[C@@H](C)C(=O)N[C@@H](CCCNC(=N)N)C(=O)N[C@@H](C)C(=O)N[C@@H](C)C(=O)N[C@@H](CCCCNC(=O)COCCOCCNC(=O)COCCOCCNC(=O)CC[C@H](NC(=O)CCCCCCCCCCCCCCCCC(=O)O)C(=O)O)C(=O)N[C@@H](CC(=O)O)C(=O)N[C@@H](Cc1ccccc1)C(=O)N[C@H](C(=O)N[C@@H](CCC(N)=O)C(=O)N[C@@H](Cc1c[nH]c2ccccc12)C(=O)N[C@@H](CC(C)C)C(=O)N[C@@H](CCS(C)(=O)=O)C(=O)N[C@@H](CCC(=O)O)C(=O)N[C@H](C(N)=O)[C@@H](C)O)C(C)C` [TP672] (H-H[Aib]QGTFTSDYSKYLDARAAK([AEEA-AEEA-γGlu-C18 diacid])DFVQWL[Met(O2)]ET-NH2; N-terminus assumed) as the compound, how does the EC50 (human GCGR; [3]) read?
A: 0.35 nM

Q: What about the “hGCGR/hGLP1R (hTone)” value (human GCGR) of the same compound?
A: 0.7

Q: And the EC50 (human GCGR; [1])?
A: < 5 nM

Q: What about the EC50 (human GLP1R; [2]) of the same compound?
A: < 5 nM

Q: With `CC(C)C[C@H](NC(=O)[C@H](Cc1c[nH]c2ccccc12)NC(=O)[C@H](CCC(N)=O)NC(=O)[C@@H](NC(=O)[C@H](Cc1ccccc1)NC(=O)[C@H](CC(=O)O)NC(=O)[C@H](CCCCNC(=O)COCCOCCNC(=O)COCCOCCNC(=O)CC[C@H](NC(=O)CCCCCCCCCCCCCCCCC(=O)O)C(=O)O)NC(=O)[C@H](C)NC(=O)[C@H](C)NC(=O)[C@H](CCCNC(=N)N)NC(=O)C(C)(C)NC(=O)[C@H](CC(=O)O)NC(=O)[C@H](CC(C)C)NC(=O)[C@H](Cc1ccc(O)cc1)NC(=O)[C@H](CCCCN)NC(=O)[C@H](CO)NC(=O)[C@H](Cc1ccc(O)cc1)NC(=O)[C@H](CC(=O)O)NC(=O)[C@H](CO)NC(=O)[C@@H](NC(=O)[C@H](Cc1ccccc1)NC(=O)[C@@H](NC(=O)CNC(=O)[C@H](CCC(N)=O)NC(=O)C(C)(C)NC(=O)[C@@H](N)Cc1c[nH]cn1)[C@@H](C)O)[C@@H](C)O)C(C)C)C(=O)N[C@@H](CCS(C)(=O)=O)C(=O)N[C@@H](CCC(=O)O)C(=O)N[C@H](C(N)=O)[C@@H](C)O` [TP673] (H-H[Aib]QGTFTSDYSKYLD[Aib]RAAK([AEEA-AEEA-γGlu-C18 diacid])DFVQWL[Met(O2)]ET-NH2; N-terminus assumed) as the compound, how does the EC50 (human GCGR; [3]) read?
A: 0.22 nM

Q: And the “hGCGR/hGLP1R (hTone)” value (human GCGR)?
A: 0.3

Q: And the EC50 (human GCGR; [1])?
A: < 5 nM

Q: What about the EC50 (human GLP1R; [2]) of the same compound?
A: < 5 nM

Q: How did the “hGCGR/hGLP1R (hTone)” value (human GCGR) turn out when `CC(C)C[C@H](NC(=O)[C@H](Cc1ccc(O)cc1)NC(=O)[C@H](CCCCN)NC(=O)[C@H](CO)NC(=O)[C@H](Cc1ccc(O)cc1)NC(=O)[C@H](CC(=O)O)NC(=O)[C@H](CO)NC(=O)[C@@H](NC(=O)[C@H](Cc1ccccc1)NC(=O)[C@@H](NC(=O)CNC(=O)[C@H](CCC(N)=O)NC(=O)C(C)(C)NC(=O)[C@@H](N)Cc1c[nH]cn1)[C@@H](C)O)[C@@H](C)O)C(=O)N[C@@H](CCC(=O)O)C(=O)N[C@@H](C)C(=O)N[C@@H](CCCNC(=N)N)C(=O)N[C@@H](C)C(=O)N[C@@H](C)C(=O)N[C@@H](CCCCNC(=O)COCCOCCNC(=O)COCCOCCNC(=O)CC[C@H](NC(=O)CCCCCCCCCCCCCCCCC(=O)O)C(=O)O)C(=O)N[C@@H](CC(=O)O)C(=O)N[C@@H](Cc1ccccc1)C(=O)N[C@H](C(=O)N[C@@H](CCC(N)=O)C(=O)N[C@@H](Cc1c[nH]c2ccccc12)C(=O)N[C@@H](CC(C)C)C(=O)N[C@@H](CCS(C)(=O)=O)C(=O)N[C@@H](CC(=O)O)C(=O)N[C@H](C(N)=O)[C@@H](C)O)C(C)C` [TP674] (H-H[Aib]QGTFTSDYSKYLEARAAK([AEEA-AEEA-γGlu-C18 diacid])DFVQWL[Met(O2)]DT-NH2; N-terminus assumed) was run?
A: 2.4

Q: What about the EC50 (human GCGR; [1]) of the same compound?
A: < 5 nM

Q: And the EC50 (human GLP1R; [4])?
A: 0.45 nM

Q: What about the EC50 (human GLP1R; [2]) of the same compound?
A: < 5 nM

Q: What does the source list for `CC(C)C[C@H](NC(=O)[C@H](Cc1c[nH]c2ccccc12)NC(=O)[C@H](CCCCNC(=O)COCCOCCNC(=O)COCCOCCNC(=O)CC[C@H](NC(=O)CCCCCCCCCCCCCCCCC(=O)O)C(=O)O)NC(=O)[C@@H](NC(=O)[C@H](Cc1ccccc1)NC(=O)[C@H](CC(=O)O)NC(=O)[C@H](CCC(N)=O)NC(=O)[C@H](C)NC(=O)[C@H](C)NC(=O)[C@H](CCCNC(=N)N)NC(=O)C(C)(C)NC(=O)[C@H](CC(=O)O)NC(=O)[C@H](CC(C)C)NC(=O)[C@H](Cc1ccc(O)cc1)NC(=O)[C@H](CCCCN)NC(=O)[C@H](CO)NC(=O)[C@H](Cc1ccc(O)cc1)NC(=O)[C@H](CC(=O)O)NC(=O)[C@H](CO)NC(=O)[C@@H](NC(=O)[C@H](Cc1ccccc1)NC(=O)[C@@H](NC(=O)CNC(=O)[C@H](CCC(N)=O)NC(=O)C(C)(C)NC(=O)[C@@H](N)Cc1c[nH]cn1)[C@@H](C)O)[C@@H](C)O)C(C)C)C(=O)N[C@@H](CCS(C)(=O)=O)C(=O)N[C@@H](CCC(=O)O)C(=O)N[C@H](C(N)=O)[C@@H](C)O` [TP675] (H-H[Aib]QGTFTSDYSKYLD[Aib]RAAQDFVK([AEEA-AEEA-γGlu-C18 diacid])WL[Met(O2)]ET-NH2)?
A: hGCGR/hGLP1R (hTone) (human GCGR): 0.4; EC50 (human GCGR; [1]): < 5 nM; EC50 (human GLP1R; [4]): 0.71 nM; EC50 (human GLP1R; [2]): < 5 nM

Q: Which “hGCGR/hGLP1R (hTone)” value (human GCGR) does the source give for `CC(C)C[C@H](NC(=O)[C@H](Cc1ccc(O)cc1)NC(=O)[C@H](CCCCN)NC(=O)[C@H](CO)NC(=O)[C@H](Cc1ccc(O)cc1)NC(=O)[C@H](CC(=O)O)NC(=O)[C@H](CO)NC(=O)[C@@H](NC(=O)[C@H](Cc1ccccc1)NC(=O)[C@@H](NC(=O)CNC(=O)[C@H](CCC(N)=O)NC(=O)C(C)(C)NC(=O)[C@@H](N)Cc1c[nH]cn1)[C@@H](C)O)[C@@H](C)O)C(=O)N[C@@H](CC(=O)O)C(=O)N[C@@H](C)C(=O)N[C@@H](CCCNC(=N)N)C(=O)N[C@@H](C)C(=O)N[C@@H](C)C(=O)N[C@@H](CCCCNC(=O)COCCOCCNC(=O)COCCOCCNC(=O)COCCOCCNC(=O)CC[C@H](NC(=O)CCCCCCCCCCCCCCCCC(=O)O)C(=O)O)C(=O)N[C@@H](CC(=O)O)C(=O)N[C@@H](Cc1ccccc1)C(=O)N[C@H](C(=O)N[C@@H](CCC(N)=O)C(=O)N[C@@H](Cc1c[nH]c2ccccc12)C(=O)N[C@@H](CC(C)C)C(=O)N[C@@H](CCS(C)(=O)=O)C(=O)N[C@@H](CC(=O)O)C(=O)N[C@H](C(N)=O)[C@@H](C)O)C(C)C` [TP676] (H-H[Aib]QGTFTSDYSKYLDARAAK([AEEA-AEEA-AEEA-γGlu-C18 diacid])DFVQWL[Met(O2)]DT-NH2; N-terminus assumed) here?
A: 3.1

Q: And the EC50 (human GCGR; [1])?
A: < 5 nM

Q: And the EC50 (human GLP1R; [4])?
A: 0.26 nM

Q: What about the EC50 (human GLP1R; [2]) of the same compound?
A: < 5 nM

Q: With `CC(C)C[C@H](NC(=O)[C@H](Cc1ccc(O)cc1)NC(=O)[C@H](CCCCN)NC(=O)[C@H](CO)NC(=O)[C@H](Cc1ccc(O)cc1)NC(=O)[C@H](CC(=O)O)NC(=O)[C@H](CO)NC(=O)[C@@H](NC(=O)[C@H](Cc1ccccc1)NC(=O)[C@@H](NC(=O)CNC(=O)[C@H](CCC(N)=O)NC(=O)C(C)(C)NC(=O)[C@@H](N)Cc1c[nH]cn1)[C@@H](C)O)[C@@H](C)O)C(=O)N[C@@H](CC(=O)O)C(=O)N[C@@H](C)C(=O)N[C@@H](CCCNC(=N)N)C(=O)N[C@@H](C)C(=O)N[C@@H](C)C(=O)N[C@@H](CCCCNC(=O)COCCOCCNC(=O)COCCOCCNC(=O)COCCOCCNC(=O)CC[C@H](NC(=O)CCCCCCCCCCCCCCCCC(=O)O)C(=O)O)C(=O)N[C@@H](CC(=O)O)C(=O)N[C@@H](Cc1ccccc1)C(=O)N[C@H](C(=O)N[C@@H](CCC(N)=O)C(=O)N[C@@H](Cc1c[nH]c2ccccc12)C(=O)N[C@@H](CC(C)C)C(=O)N[C@@H](CCS(C)(=O)=O)C(=O)N[C@@](C)(CC(=O)O)C(=O)N[C@H](C(N)=O)[C@@H](C)O)C(C)C` [TP677] (H-H[Aib]QGTFTSDYSKYLDARAAK([AEEA-AEEA-AEEA-γGlu-C18 diacid])DFVQWL[Met(O2)][αMeD]T-NH2; N-terminus assumed) as the compound, how does the “hGCGR/hGLP1R (hTone)” value (human GCGR) read?
A: 1.9

Q: What about the EC50 (human GCGR; [1]) of the same compound?
A: < 5 nM

Q: And the EC50 (human GLP1R; [4])?
A: 0.76 nM

Q: And the EC50 (human GLP1R; [2])?
A: < 5 nM
